Source: patent US10188634B2, “3-(3H-imidazo[4,5-C]pyridin-2-yl)-1 H-pyrazolo[4,3-B]pyridines and therapeutic uses thereof” (Samumed, LLC, priority 2015, dated 2019)

Tests used:
[1] = system: Wnt activity (Sp5-Luc reporter, human Sp5 promoter with eight TCF/LEF binding sites) in SW480 colon carcinoma cells; test: Screening assay for Wnt activity: Sp5-Luc reporter gene assay in SW480 cells; type: cell-based; conditions: for inhibition at 10 µM: read-out: percent inhibition at 10 μM (given for EC50 of >10 μM); for EC50: 10-point dose-response starting from 10 μM, overnight incubation
Method in brief: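 Luminescence (BrightGlo) read after overnight 37 °C exposure of Sp5-Luc SW480 reporter cells, 4,000/well in 1% FBS, to compound dosed 1:3 over 10 points from 10 μM with 0.1% DMSO. Values normalized to DMSO-only cells, fitted with variable-slope four-parameter model; where EC50 exceeds 10 μM, % inhibition at 10 μM reported.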

[2] = system: primary human mesenchymal stem cells (hMSCs); test: Induction of chondrogenesis in primary human mesenchymal stem cells (hMSCs), nodule imaging with Rhodamine B / Nile Red; type: cell-based; conditions: for Emax: hMSCs chondrogenesis, TGF-β3 (10 ng/mL) as positive control, read-out: Max. Activity as % TGF-β3 activity; for EC50: hMSCs, concentration required to induce 50% levels of chondrogenesis vs TGF-β3 positive control, read-out: Conc (nM) of 50% TGF-β3 activity
Method: Representative compounds were screened using primary human mesenchymal stem cells (hMSCs) to determine their ability to induce chondrogenesis (process by which cartilage is developed).
Human Mesenchymal Stem Cell Culture: Primary human mesenchymal stem cells (hMSCs) were purchased from Lonza (Walkersville, Md.) and expanded in Mesenchymal Stem Cell Growth Media (Lonza). Cells between passage 3 and 6 were used for the experiments.
Compound Screening: Each compound was dissolved in DMSO as a 10 mM stock and used to prepare compound source plates. For the 96 well assay, serial dilution (1:3, 6-point dose-response curves from 2700 nM to 10 nM) and compound transfer was performed using the ECHO 550 (Labcyte, Sunnyvale, Calif.) into 96-well clear bottom assay plates (Greiner Bio-One) with appropriate DMSO backfill for a final DMSO concentration of 0.03%. hMSCs were plated at 20,000 cells/well in 250 μL/well Incomplete Chondrogenic Induction Medium (Lonza; DMEM, dexamethasone, ascorbate, insulin-transferrin-selenium [ITS supplement], gentamycin-amphotericin [GA-1000], sodium pyruvate, proline and L-glutamine). TGF-β3 (10 ng/mL) was used as a positive control for differentiation while negative control wells were treated with 75 nL DMSO for normalization and calculating EC50 values. For the 384 well assay, serial dilution (1:3, 8-point dose-response curves from 5000 nM to 2.2 nM) and compound transfer was performed using the ECHO 550 (Labcyte, Sunnyvale, Calif.) into 384-well clear bottom assay plates (Greiner Bio-One) with appropriate DMSO backfill for a final DMSO concentration of 0.03%. hMSCs were plated at 8,000 cells/well in 80 μL/well Incomplete Chondrogenic Induction Medium (Lonza; DMEM, dexamethasone, ascorbate, insulin-transferrin-selenium [ITS supplement], gentamycin-amphotericin [GA-1000], sodium pyruvate, proline and L-glutamine). TGF-β3 (10 ng/mL) was used as a positive control for differentiation while negative control wells were treated with 25 nL DMSO for normalization and calculating EC50 values. Cells were incubated at 37° C. and 5% CO2 for 6 days. To image chondrogenic nodules, the cells were fixed using 4% formaldehyde (Electron Microscopy Sciences), and stained with 2 μg/mL Rhodamine B (Sigma-Aldrich) and 20 μM Nile Red (Sigma-Aldrich) [Johnson K., et.al, A Stem Cell-Based Approach to Cartilage Repair, Science, (2012), 336(6082). 717-721]. The nodules imaged (25 images per well for 96 well plates and 9 images per well for 384 well plates at 10× magnification) by excitation at 531 nm and emission at 625 nm and quantified using the CellInsight CX5 (Thermo Scientific). Area of nodules in each well was normalized to the average of 3 DMSO treated wells on the same plate using Excel (Microsoft Inc.). The normalized averages (fold change over DMSO) of 2 or 3 replicate wells for each compound concentration were calculated. Due to solubility limitations of some of the compounds, curve fitting was incomplete leading to inaccurate EC50 determinations.
Using TGF-β3 as a positive control, the concentration of representative compounds required to induce 50% levels of chondrogenesis is reported. In addition, the maximum activity of each compound and the respective dose that each compound reached maximum chondrogenesis activity is reported.

EC50 [1] [nM]	EC50 [2] [nM]	SMILES	inhibition at 10 µM [1] [%]	Emax [2] [%]
> 10000	30	Cc1ccncc1-c1ccc2[nH]nc(-c3nc4c(-c5ccncc5)cncc4[nH]3)c2n1 [Compound 117, 5-(4-Methylpyridin-3-yl)-3-(7-(pyridin-4-yl)-3H-imidazo[4,5-c]pyridin-2-yl)-1H-pyrazolo[4,3-b]pyridine]	23.1	68
> 10000	–	CCCC(=O)Nc1cncc(-c2ccc3[nH]nc(-c4nc5c(-c6ccncc6)cncc5[nH]4)c3n2)c1 [Compound 129, N-(5-(3-(7-(Pyridin-4-yl)-3H-imidazo[4,5-c]pyridin-2-yl)-1H-pyrazolo[4,3-b]pyridin-5-yl)pyridin-3-yl)butyramide]	0	31
> 10000	30	CCCCC(=O)Nc1cncc(-c2ccc3[nH]nc(-c4nc5c(-c6ccccn6)cncc5[nH]4)c3n2)c1 [Compound 159, N-(5-(3-(7-(Pyridin-2-yl)-3H-imidazo[4,5-c]pyridin-2-yl)-1H-pyrazolo[4,3-b]pyridin-5-yl)pyridin-3-yl)pentanamide]	1	86
> 10000	900	CCC(=O)Nc1cncc(-c2ccc3[nH]nc(-c4nc5c(N6CCCCC6)cncc5[nH]4)c3n2)c1 [Compound 169, N-(5-(3-(7-(Piperidin-1-yl)-3H-imidazo[4,5-c]pyridin-2-yl)-1H-pyrazolo[4,3-b]pyridin-5-yl)pyridin-3-yl)propionamide]	2.3	70
> 10000	30	CN1CCN(c2cncc3[nH]c(-c4n[nH]c5ccc(-c6cncc(N)c6)nc45)nc23)CC1 [Compound 227, 5-(3-(7-(4-Methylpiperazin-1-yl)-3H-imidazo[4,5-c]pyridin-2-yl)-1H-pyrazolo[4,3-b]pyridin-5-yl)pyridin-3-amine]	16.3	65

Second part, the molecule before the results:

SMILES	EC50 [1] [nM]	EC50 [2] [nM]	inhibition at 10 µM [1] [%]	Emax [2] [%]
CC(C)C(=O)Nc1cncc(-c2ccc3[nH]nc(-c4nc5c(-c6ccccc6F)cncc5[nH]4)c3n2)c1 [Compound 65, N-(5-(3-(7-(2-fluorophenyl)-3H-imidazo[4,5-c]pyridin-2-yl)-1H-pyrazolo[4,3-b]pyridin-5-yl)pyridin-3-yl)isobutyramide]	> 10000	10	1	181
c1cncc(-c2ccc3[nH]nc(-c4nc5c(-c6cccnc6)cncc5[nH]4)c3n2)c1 [Compound 88, 5-(Pyridin-3-yl)-3-(7-(pyridin-3-yl)-3H-imidazo[4,5-c]pyridin-2-yl)-1H-pyrazolo[4,3-b]pyridine]	> 10000	30	28	84
CC(C)C(=O)Nc1cncc(-c2ccc3[nH]nc(-c4nc5c(-c6cccnc6)cncc5[nH]4)c3n2)c1 [Compound 93, N-(5-(3-(7-(Pyridin-3-yl)-3H-imidazo[4,5-c]pyridin-2-yl)-1H-pyrazolo[4,3-b]pyridin-5-yl)pyridin-3-yl)isobutyramide]	> 10000	1670	18.3	336
CCNCc1cncc(-c2ccc3[nH]nc(-c4nc5c(-c6ccccn6)cncc5[nH]4)c3n2)c1 [Compound 146, N-((5-(3-(7-(Pyridin-2-yl)-3H-imidazo[4,5-c]pyridin-2-yl)-1H-pyrazolo[4,3-b]pyridin-5-yl)pyridin-3-yl)methyl)ethanamine]	> 10000	–	14.2	50
CN(C)Cc1cncc(-c2ccc3[nH]nc(-c4nc5c(N6CCCCC6)cncc5[nH]4)c3n2)c1 [Compound 181, N,N-Dimethyl-1-(5-(3-(7-(piperidin-1-yl)-3H-imidazo[4,5-c]pyridin-2-yl)-1H-pyrazolo[4,3-b]pyridin-5-yl)pyridin-3-yl)methanamine]	> 10000	900	33.1	84
Cc1cn(-c2cncc3[nH]c(-c4n[nH]c5ccc(-c6cncc(NC(=O)CC(C)C)c6)nc45)nc23)cn1 [Compound 198, 3-Methyl-N-(5-(3-(7-(4-methyl-1H-imidazol-1-yl)-3H-imidazo[4,5-c]pyridin-2-yl)-1H-pyrazolo[4,3-b]pyridin-5-yl)pyridin-3-yl)butanamide]	> 10000	100	1.8	59
Cc1cn(-c2cncc3[nH]c(-c4n[nH]c5ccc(-c6cncc(NC(=O)C(C)(C)C)c6)nc45)nc23)cn1 [Compound 204, N-(5-(3-(7-(4-methyl-1H-imidazol-1-yl)-3H-imidazo[4,5-c]pyridin-2-yl)-1H-pyrazolo[4,3-b]pyridin-5-yl)pyridin-3-yl)pivalamide]	> 10000	100	0	150
Cc1cn(-c2cncc3[nH]c(-c4n[nH]c5ccc(-c6cncc(CN7CCCC7)c6)nc45)nc23)cn1 [Compound 210, 3-(7-(4-Methyl-1H-imidazol-1-yl)-3H-imidazo[4,5-c]pyridin-2-yl)-5-(5-(pyrrolidin-1-ylmethyl)pyridin-3-yl)-1H-pyrazolo[4,3-b]pyridine]	> 10000	2700	3.5	65
Cc1cn(-c2cncc3[nH]c(-c4n[nH]c5ccc(-c6cncc(NC(=O)C7CCC7)c6)nc45)nc23)cn1 [Compound 217, N-(5-(3-(7-(4-Methyl-1H-imidazol-1-yl)-3H-imidazo[4,5-c]pyridin-2-yl)-1H-pyrazolo[4,3-b]pyridin-5-yl)pyridin-3-yl)cyclobutanecarboxamide]	> 10000	–	6.7	47
CC(C)C(=O)Nc1cncc(-c2ccc3[nH]nc(-c4nc5c(N6CCN(C)CC6)cncc5[nH]4)c3n2)c1 [Compound 233, N-(5-(3-(7-(4-Methylpiperazin-1-yl)-3H-imidazo[4,5-c]pyridin-2-yl)-1H-pyrazolo[4,3-b]pyridin-5-yl)pyridin-3-yl)isobutyramide]	> 10000	–	6.2	47
CCNCc1cncc(-c2ccc3[nH]nc(-c4nc5c(-c6ccoc6)cncc5[nH]4)c3n2)c1 [Compound 286, N-((5-(3-(7-(Furan-3-yl)-3H-imidazo[4,5-c]pyridin-2-yl)-1H-pyrazolo[4,3-b]pyridin-5-yl)pyridin-3-yl)methyl)ethanamine]	> 10000	–	37.4	29
CCCCC(=O)Nc1cncc(-c2ccc3[nH]nc(-c4nc5c(-c6ccoc6)cncc5[nH]4)c3n2)c1 [Compound 299, N-(5-(3-(7-(Furan-3-yl)-3H-imidazo[4,5-c]pyridin-2-yl)-1H-pyrazolo[4,3-b]pyridin-5-yl)pyridin-3-yl)pentanamide]	> 10000	10	14.7	74
CCC(=O)Nc1cncc(-c2ccc3[nH]nc(-c4nc5c(-c6cccs6)cncc5[nH]4)c3n2)c1 [Compound 309, N-(5-(3-(7-(Thiophen-2-yl)-3H-imidazo[4,5-c]pyridin-2-yl)-1H-pyrazolo[4,3-b]pyridin-5-yl)pyridin-3-yl)propionamide]	> 10000	30	2.4	80
